{"source": "patent US5521197A", "about": "“3-<1-alkylenearyl>-4-<1,2,3,6-tetrahydropyridinyl>-and 3-<1-alkylenearyl>-4-piperidinyl-1h-indoles: new 5-HT1F agonists” (Eli Lilly and Company, priority 1994, dated 1996)", "key": {"[1]": {"tested_on": "protein extravasation in the dura", "assay": "Inhibition of neuronal protein extravasation (trigeminal ganglion stimulation, Evans Blue in dura)", "format": "in vivo, Harlan Sprague-Dawley rats or guinea pigs"}, "[2]": {"biological_target": "T1, 5-HT1F receptor (Homo sapiens, UniProt P30939)", "T1 sequence (P30939 1-366)": "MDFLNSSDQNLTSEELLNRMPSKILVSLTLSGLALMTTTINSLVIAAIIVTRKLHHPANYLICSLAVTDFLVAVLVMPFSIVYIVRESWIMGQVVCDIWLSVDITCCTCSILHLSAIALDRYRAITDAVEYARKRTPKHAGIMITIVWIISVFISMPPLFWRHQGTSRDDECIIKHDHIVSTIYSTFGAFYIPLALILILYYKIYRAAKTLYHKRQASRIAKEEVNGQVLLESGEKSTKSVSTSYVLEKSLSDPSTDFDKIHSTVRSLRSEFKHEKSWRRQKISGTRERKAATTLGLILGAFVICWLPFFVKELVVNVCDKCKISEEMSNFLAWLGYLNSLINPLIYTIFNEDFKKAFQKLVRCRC", "assay": "Radioligand ([3H]5-HT) binding to the 5-HT1F receptor subtype", "parameters": "expressed in transfected cells; host or cells: Ltk- cells (membranes)", "conditions": "for inhibition at 1 µM: read-out: 5-HT1F BINDING, % displacement at 1000 nM; for pKi: [3H]5-HT displacement, transfected Ltk- cell membranes, 37° C., read-out: 5-HT1F BINDING Ki", "protocol": "The cells were washed twice with phosphate-buffered saline, scraped from the culture dishes into 5 mL of ice-cold phosphate-buffered saline, and centrifuged at 200×g for 5 minutes at 4° C. The pellet was resuspended in 2.5 mL of ice-cold Tris buffer (20 mM Tris HCl, pH=7.4 at 23° C., 5 mM EDTA) and homogenized with a Wheaton tissue grinder. The lysate was subsequently centrifuged at 200×g for 5 minutes at 4° C. to pellet large fragments which were discarded. The supernatant was collected and centrifuged at 40,000×g for 20 minutes at 4° C. The pellet resulting from this centrifugation was washed once in ice-cold Tris wash buffer and resuspended in a final buffer containing 50 mM Tris HCl and 0.5 mM EDTA, pH=7.4 at 23° C. Membrane preparations were kept on ice and utilized within two hours for the radioligand binding assays.\nSaturation studies were conducted using [^3 H]5-HT at 12 different concentrations ranging from 0.5 nM to 100 nM. […] The binding profile of drugs in competition experiments was accomplished using 10-12 concentrations of compound. […] Nonspecific binding was defined in the presence of 10 μM 5-HT. Binding was initiated by the addition of 50 μL membrane homogenates (10-20 μg). The reaction was terminated by rapid filtration through presoaked (0.5% polyethyleneimine) filters using 48R Cell Brandel Harvester (Gaithersburg, Md.). Subsequently, filters were washed for 5 seconds with ice cold buffer (50 mM Tris HCl, pH=7.4 at 4° C.), dried and placed into vials containing 2.5 mL Readi-Safe (Beckman, Fullerton, Calif.) and radioactivity was measured using a Beckman LS 5000TA liquid scintillation counter. […] Binding data was analyzed by computer-assisted nonlinear regression analysis (Accufit and Accucomp, Lunden Software, Chagrin Falls, Ohio). […] All experiments were performed in triplicate. […]"}, "[3]": {"tested_on": "neurogenic inflammation", "conditions": "in vivo; cited from earlier work"}, "[4]": {"tested_on": "migraine", "conditions": "in vivo; cited from earlier work"}, "[5]": {"tested_on": "cephalic vascular smooth muscle", "conditions": "cited from earlier work"}, "[6]": {"conditions": "iv, read-out: Inhibition of Protein Extravasation, i.v. ID50"}}, "note": "pKi: −log10 of the molar value. Where a name gives a salt, the structure may show the parent alone. Read-outs that look alike come from different tables or passages of the source."}
{"smiles": "CNS(=O)(=O)Cc1ccc2[nH]cc(CCN(C)C)c2c1", "note": "[Compound I, 3-[2-(dimethylamino)ethyl]-N-methyl-1H-indole-5-methanesulfonamide butane-1,4-dioate (1:1)]", "values": [{"measurement": "ED50", "setting": "[1]; [6]", "result": "2.6e-05", "unit": "µmol/kg"}]}
{"smiles": "Cn1cc(CCN2CCC(c3c[nH]c4ccc(F)cc34)CC2)cn1", "note": "[Compound II, 5-fluoro-3-<1-<2-<1-methyl-1H-pyrazol-4-yl>ethyl>-4-piperidinyl>-1H-indolehydrochloride]", "values": [{"measurement": "ED50", "setting": "[1]; iv; read-out: Inhibition of Protein Extravasation, i.v. ID50", "result": "8.6e-07", "unit": "µmol/kg"}]}
{"smiles": "Oc1ccc2[nH]cc(C3CCNCC3)c2c1", "note": "[Compound III, 5-hydroxy-3-(4-piperidinyl)-1H-indole oxalate]", "values": [{"measurement": "ED50", "setting": "[1]; [6]", "result": "8.9e-06", "unit": "µmol/kg"}]}
{"smiles": "CCN(CC)C1CCc2cccc(Cl)c2C1", "note": "(stereo not drawn) [Compound IV, 8-chloro-2-diethylamino-1,2,3,4-tetrahydronaphthalene hydrochloride]", "values": [{"measurement": "ED50", "setting": "[1]; [6]", "result": 0.00012, "unit": "µmol/kg"}]}
{"smiles": "CN(C)C1CCc2[nH]c3ccc(O)cc3c2C1", "note": "(stereo not drawn) [Compound V, 6-hydroxy-3-dimethylamino-1,2,3,4-tetrahydrocarbazole]", "values": [{"measurement": "ED50", "setting": "[1]; [6]", "result": "8.7e-06", "unit": "µmol/kg"}]}
{"smiles": "C1=C(c2c[nH]c3ccccc23)CCN(CCSc2ccccc2)C1", "note": "[Example 39, 3-<1-<2-<phenylthio>ethyl>-4-<1,2,3,6-tetrahydropyridinyl>>-1H-indole]", "values": [{"measurement": "inhibition at 1 µM", "setting": "[2]", "result": 34, "unit": "%"}]}
{"smiles": "c1ccc(OCCN2CCC(c3c[nH]c4ccccc34)CC2)cc1", "note": "[Example 40, 3-<1-<2-phenoxyethyl>-4-piperidinyl>-1H-indole hydrochloride]", "values": [{"measurement": "pKi", "setting": "[2]; Table I", "result": 6.72}]}
{"smiles": "c1ccc(OCCCN2CCC(c3c[nH]c4ccccc34)CC2)cc1", "note": "[Example 41, 3-<1-<3-phenoxypropyl>-4-piperidinyl>-1H-indole hydrochloride]", "values": [{"measurement": "pKi", "setting": "[2]; Table I", "result": 7.04}]}
{"smiles": "c1ccc(SCCN2CCC(c3c[nH]c4ccccc34)CC2)cc1", "note": "[Example 42, 3-<1-<2-<phenylthio>ethyl>-4-piperidinyl>-1H-indole]", "values": [{"measurement": "pKi", "setting": "[2]; Table I", "result": 6.47}]}
{"smiles": "C1=C(c2c[nH]c3ccccc23)CCN(CCCCc2ccccc2)C1", "note": "[Example 43, 3-<1-<4-phenylbutyl>-4-<1,2,3,6-tetrahydropyridinyl>>-1H-indolehydrochloride]", "values": [{"measurement": "pKi", "setting": "[2]; Table I", "result": 6.26}]}
{"smiles": "C1=C(c2c[nH]c3ccccc23)CCN(Cc2ccccc2)C1", "note": "[Example 44, 3-<1-benzyl-4-<1,2,3,6-tetrahydropyridinyl>>-1H-indole hydrochloride]", "values": [{"measurement": "pKi", "setting": "[2]; Table I", "result": 6.40}]}
{"smiles": "c1ccc(CN2CCC(c3c[nH]c4ccccc34)CC2)cc1", "note": "[Example 45, 3-<1-benzyl-4-piperidinyl>-1H -indole]", "values": [{"measurement": "pKi", "setting": "[2]; Table I", "result": 6.62}]}
{"smiles": "c1ccc(CCCCN2CCC(c3c[nH]c4ccccc34)CC2)cc1", "note": "[Example 46, 3-<1-<4-phenylbutyl>-4-piperidinyl>-1H-indole hydrochloride]", "values": [{"measurement": "pKi", "setting": "[2]; Table I", "result": 7.69}]}
{"smiles": "C1=C(c2c[nH]c3ccccc23)CCN(CCCc2ccccc2)C1", "note": "[Example 47, 3-<1-<3-phenylpropyl>-4-<1,2,3,6-tetrahydropyridinyl>>-1H-indolehydrochloride]", "values": [{"measurement": "inhibition at 1 µM", "setting": "[2]", "result": 62, "unit": "%"}]}
{"smiles": "c1ccc(CCCN2CCC(c3c[nH]c4ccccc34)CC2)cc1", "note": "[Example 48, 3-<1-<3-phenylpropyl>-4-piperidinyl>-1H-indole hydrochloride]", "values": [{"measurement": "inhibition at 1 µM", "setting": "[2]; Table I, at 1000 nM", "result": 50, "unit": "%"}]}
{"smiles": "CNS(=O)(=O)Cc1ccc2[nH]cc(CCN(C)C)c2c1", "note": "[sumatriptan]", "values": [{"measurement": "blockade of neurogenic inflammation", "setting": "[3]", "result": "blocked"}, {"measurement": "effectiveness in the treatment of migraine", "setting": "[4]", "result": "effective in the treatment of migraine"}, {"measurement": "contraction of cephalic vascular smooth muscle", "setting": "[5]", "result": "contract cephalic vascular smooth muscle"}]}
